Assay results taken from patent US20090048348A1, “METHOD FOR TREATING AUTISM” (Forest Laboratories Holdings Ltd., priority 2004, published 2009).
Structures can show the parent of a compound that is named as a salt.

Tested on: children and adolescents with autistic spectrum disorders
Test: Open-label trial of Memantine in children and adolescents with autistic spectrum disorders
Type: in vivo, human
Procedure: In support of the present invention, an experiment was conducted to evaluate the use of Memantine in children and adolescents with autistic spectrum disorders (hereinafter referred to as “ASD”). […] A range of 2.5-10 mg per day of Memantine was applied as an open-label trial in children with ASD. Clinical observations of global function in language and/or behavior pattern were assessed. Thirty patients, including 24 males and 6 females with an average age of 8.92 years and meeting DSM-IV criteria for ASD, were treated with Memantine for greater than 8 weeks. The patients were evaluated using a global clinical improvement scale rating for improvement in language and behaviors based on parental observation and clinical appearance. Improvements were rated as follows: moderate to significant, mild to moderate, or no improvement. The therapy ranged from between 8 to 40 weeks, with an average duration of therapy of 18 weeks and an average daily dosage of 8.1 mg. After the thirty patients were treated for more than 2 months with Memantine, parents reported improvements in 26 of the 30 patients in one or more categories: attention, motor planning, language function (both receptively and expressively), and self-stimulatory behaviors. Moderate to significant improvement occurred in 16 of the 26, with milder improvement in 10 of the 26.

[1] = open-label, 2.5-10 mg per day, treated more than 2 months, global clinical improvement scale

## CC12CC3CC(C)(C1)CC(N)(C3)C2 [Memantine, 1-amino-3,5-dimethyladamantane hydrochloride]
open-label trial in ASD, overall clinical observation
  frontal executive functions (attention, speech expression, perseveration): appears to clearly improve frontal executive functions
open-label, 2.5-10 mg per day, 30 patients treated more than 2 months
  side effects: No side effects were reported
open-label, 2.5-10 mg per day, average 8.1 mg daily, treated more than 2 months (8 to 40 weeks), global clinical improvement scale
  patients with parent-reported improvements in one or more categories (attention, motor planning, language function, self-stimulatory behaviors): 26 of the 30 patients
[1]
  patients with milder improvement: 10 of the 26
  patients with moderate to significant improvement: 16 of the 26
